In patent publication US20240238300A1, “TREATMENT METHODS FOR SUBJECTS WITH CANCER HAVING AN ABERRATION IN EGFR AND/OR HER2” (TAIHO PHARMACEUTICAL CO., LTD., priority 2021, published 2024):
Like-named read-outs stand apart in the source and are kept apart here.

Legend:
[1] = molecular target: T1, human BCRP (Homo sapiens, UniProt Q9UNQ0); test: inhibitory effect on human BCRP, bidirectional transport of [^3H]prazosin
T1 sequence (Q9UNQ0 1-655): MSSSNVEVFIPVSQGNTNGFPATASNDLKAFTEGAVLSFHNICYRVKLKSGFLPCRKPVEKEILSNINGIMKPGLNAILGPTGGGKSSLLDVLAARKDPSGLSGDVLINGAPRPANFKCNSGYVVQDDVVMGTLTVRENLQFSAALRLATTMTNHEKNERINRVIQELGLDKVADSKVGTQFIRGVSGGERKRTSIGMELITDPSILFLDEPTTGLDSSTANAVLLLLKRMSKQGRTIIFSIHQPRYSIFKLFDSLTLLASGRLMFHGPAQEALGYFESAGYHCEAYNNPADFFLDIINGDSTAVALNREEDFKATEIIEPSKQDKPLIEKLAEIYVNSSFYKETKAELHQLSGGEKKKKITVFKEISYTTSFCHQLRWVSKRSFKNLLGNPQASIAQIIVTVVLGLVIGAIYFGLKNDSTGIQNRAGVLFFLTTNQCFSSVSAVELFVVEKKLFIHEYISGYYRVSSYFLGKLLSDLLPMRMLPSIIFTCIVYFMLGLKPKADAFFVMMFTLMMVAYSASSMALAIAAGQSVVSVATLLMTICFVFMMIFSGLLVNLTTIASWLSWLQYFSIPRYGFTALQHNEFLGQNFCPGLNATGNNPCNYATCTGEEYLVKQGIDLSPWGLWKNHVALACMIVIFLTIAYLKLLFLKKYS

[2] = pharmacokinetics after multiple oral administration for 7 days; assay type: in vivo, male nude mice; details: for AUC(0-t): male, nude, mouse, plasma, read-out: AUC0-24
Procedure: Compound (1) was orally administered. The concentrations of Compound (1) were quantified using LC-MS/MS for the PK studies. ^13C-labeled Compound (1) was used as an internal standard.
Pharmacokinetics in nude mice after multiple oral administration for 7 days. Plasma concentration profiles and PK parameters of Compound (1) on Day 7 were determined in male nude mice after once daily oral administrations for 7 days at doses of 6.25, 12.5, and 25 mg/kg (FIGS. 5A and 5B, and Table 5). The Cmax, AUClast, and AUC0-24 values increased in a dose-dependent manner.

[3] = Day 7, once daily oral 6.25 mg/kg for 7 days
[4] = Day 7, once daily oral 12.5 mg/kg for 7 days
[5] = Day 7, once daily oral 25 mg/kg for 7 days

`C=CC(=O)N1C[C@H](n2c(C#CC3CC3)c(C(=O)N[C@H](C)c3ccccc3)c3c(N)ncnc32)C[C@@H]1C` [Compound (1), 7-((3R,5S)-1-acryloyl-5-methylpyrrolidin-3-yl)-4-amino-6-(cyclopropylethynyl)-N—((R)-1-phenylethyl)-7H-pyrrolo[2,3-d]pyrimidine-5-carboxamide] showed an IC50 [1] of 332 nM, an AUClast [2, 3] of 972 ± 239 ng·h/mL and a Cmax [2, 3] of 1170 ± 300 ng/mL. It also gave a Tmax [2, 3] of 15 ± 0 min, an AUC0-24 [2, 4] of 2830 ± 400 ng·h/mL and an AUClast [2, 4] of 2800 ± 460 ng·h/mL. For the same compound, the Cmax [2, 4] was 2040 ± 230 ng/mL, the Tmax [2, 4] was 19.8 ± 8.4 min and the AUClast [2, 5] was 6180 ± 310 ng·h/mL. The Cmax [2, 5] was 3710 ± 360 ng/mL, the Tmax [2, 5] was 25.2 ± 8.4 min and the AUC(0-t) [2, 3] was 1030 ± 280 ng·h/mL. It also gave an AUC(0-t) [2, 5] of 6400 ± 430 ng·h/mL.
